Measurements published in ChEMBL document CHEMBL2407073, “RCAI-61 and related 6'-modified analogs of KRN7000: their synthesis and bioactivity for mouse lymphocytes to produce interferon-γ in vivo” (Bioorg Med Chem, 2013).
Activity calls are given as the source filed them.

Tests used:
Format in all cases: functional, organism-based
Mus musculus [1] = experiment: Immunostimulatory activity in C57BL/6J mouse assessed as increase in production of IL-12p70 in serum at 2 ug, iv measured at 3 to 6 hrs by cytometric bead array method
Mus musculus [2] = experiment: Immunostimulatory activity in C57BL/6J mouse assessed as increase in production of IL-4 in serum at 2 ug, iv measured at 3 hrs by cytometric bead array method
Mus musculus [3] = experiment: Immunostimulatory activity in C57BL/6J mouse assessed as increase in production of IFNgamma in serum at 2 ug, iv by ELISA
Mus musculus [4] = experiment: Immunostimulatory activity in C57BL/6J mouse assessed as increase in production of IL-4 in serum at 0.02 to 2 ug, iv measured at 3 hrs by cytometric bead array method
Mus musculus [5] = experiment: Immunostimulatory activity in C57BL/6J mouse assessed as increase in production of IFNgamma in serum at 0.02 ug, iv by ELISA
Mus musculus [6] = experiment: Immunostimulatory activity in iv dosed C57BL/6J mouse assessed as increase in production of IL-4 in serum measured at 3 hrs by cytometric bead array method

Measured: Activity

CCCCCCCCCCCCCCCCCCCCCCCCCC(=O)N[C@@H](CO[C@H]1O[C@H](COCCC)[C@H](O)[C@H](O)[C@H]1O)[C@H](O)[C@H](O)CCCCCCCCCCCCCC
active: Mus musculus [1] | Mus musculus [2] | Mus musculus [3]

CCCCCCCCCCCCCCCCCCCCCCCCCC(=O)N[C@@H](CO[C@H]1O[C@H](C)[C@H](O)[C@H](O)[C@H]1O)[C@H](O)[C@H](O)CCCCCCCCCCCCCC
active: Mus musculus [1] | Mus musculus [2] | Mus musculus [3]

CCCCCCCCCCCCCCCCCCCCCCCCCC(=O)N[C@@H](CO[C@H]1O[C@H](CC)[C@H](O)[C@H](O)[C@H]1O)[C@H](O)[C@H](O)CCCCCCCCCCCCCC
active: Mus musculus [1] | Mus musculus [2] | Mus musculus [3]

CCCCCCCCCCCCCCCCCCCCCCCCCC(=O)N[C@@H](CO[C@H]1OC[C@H](O)[C@H](O)[C@H]1O)[C@H](O)[C@H](O)CCCCCCCCCCCCCC
active: Mus musculus [1] | Mus musculus [2] | Mus musculus [3]

CCCCCCCCCCCCCCCCCCCCCCCCCC(=O)N[C@@H](CO[C@H]1O[C@H](CO)[C@H](O)[C@H](O)[C@H]1O)[C@H](O)[C@H](O)CCCCCCCCCCCCCC
active: Mus musculus [1] | Mus musculus [2] | Mus musculus [3] | Mus musculus [4]

CCCCCCCCCCCCCCCCCCCCCCCCCC(=O)N[C@@H](CO[C@H]1O[C@H](COCC)[C@H](O)[C@H](O)[C@H]1O)[C@H](O)[C@H](O)CCCCCCCCCCCCCC
active: Mus musculus [1] | Mus musculus [2] | Mus musculus [3]

CCCCCCCCCCCCCCCCCCCCCCCCCC(=O)N[C@@H](CO[C@H]1O[C@H](COC)[C@H](O)[C@H](O)[C@H]1O)[C@H](O)[C@H](O)CCCCCCCCCCCCCC
active: Mus musculus [5] | Mus musculus [1] | Mus musculus [6] Dose-dependent effect | Mus musculus [2] | Mus musculus [3]

CCCCCCCCCCCCCCCCCCCCCCCCCC(=O)N[C@@H](CO[C@H]1O[C@H](COCOC)[C@H](O)[C@H](O)[C@H]1O)[C@H](O)[C@H](O)CCCCCCCCCCCCCC
active: Mus musculus [1] | Mus musculus [2] | Mus musculus [3]

CCCCCCCCCCCCCCCCCCCCCCCCCC(=O)N[C@@H](CO[C@H]1O[C@H](CF)[C@H](O)[C@H](O)[C@H]1O)[C@H](O)[C@H](O)CCCCCCCCCCCCCC
active: Mus musculus [1] | Mus musculus [2] | Mus musculus [3]

CCCCCCCCCCCCCCCCCCCCCCCCCC(=O)N[C@@H](CO[C@H]1O[C@H](COCOCCOC)[C@H](O)[C@H](O)[C@H]1O)[C@H](O)[C@H](O)CCCCCCCCCCCCCC
active: Mus musculus [1] | Mus musculus [2] | Mus musculus [3]

CCCCCCCCCCCCCCCCCCCCCCCCCC(=O)N[C@@H](CO[C@H]1O[C@H](COCCO)[C@H](O)[C@H](O)[C@H]1O)[C@H](O)[C@H](O)CCCCCCCCCCCCCC
active: Mus musculus [1] | Mus musculus [2] | Mus musculus [3]
